According to patent US7863267B2, “Use of selective chloride channel modulators to treat methamphetamine abuse” (priority 2003, dated 2011):
Where two headings read alike, the source gives them in different places.

Key:
[1] = excreted unchanged, not appreciably metabolized; cited from earlier work
alcoholics [2] = experiment: Heart rate and blood pressure before and after flumazenil in alcoholics; format: in vivo, human; parameters: Heart rate: patients with a significant reduction / Diastolic blood pressure: patients with a significant reduction: concentration or dose not given beside the values
Text: (§1) 64 alcoholics (51 males and 13 females) voluntarily entered a treatment program to discontinue the use of alcohol. The patients were provided the appropriate information and the corresponding informed consent form was obtained from them. The patients were warned not to drink alcohol the morning on which the treatment was to be carried out to enable better evaluation of the withdrawal symptoms. Table 14 summarizes the characteristics of the patients treated associated with alcohol use.
(§2) Before starting the treatment, the patients underwent a complete medical and psychological examination. The monitoring of the patients throughout the morning included a complete blood count, a biochemical profile [creatinine, glucose, blood urea nitrogen (BUN), cholesterol (HDL and LDL), triglycerides, alkaline phosphatase, LDH (lactic dehydrogenase) and total proteins], hepatic function tests [GOT, GPT, GGT, bilirubin), electrocardiogram and, if need be, pregnancy test and x-ray examination. The exclusion criteria applied included acute or uncompensated illnesses, as well as the taking of any drug contraindicated with flumazenil. No patient was excluded after the pre-admission interview and the tests performed. Admission of one patient was postponed until their cardiac pathology was checked.
(§3) Before and after the administration of flumazenil, the withdrawal symptomatology was measured using the CIWA-A evaluation (Adinoff et al., Medical Toxicology 3:172-196 (1988)), as well as heart rate and blood pressure.
(§4) Flumazenil was administered at a dose of 0.2 mg every 3 minutes (up to a total of 2 mg/day). This quantity per dose was established to minimize the adverse side effects associated with withdrawal or interactions with other pharmaceuticals or psychopathologies.
(§5) Patients who presented marked anxiety were administered an additional dose of 192 mg of clomethiazole 30 minutes before administration of flumazenil.

alcoholics [3] = experiment: CIWA-A withdrawal symptomatology before and after flumazenil in alcoholics; format: in vivo, human
Text: as §1, §2, §3, §4, §5

alcoholics [4] = experiment: Clinical observations during hospitalization (appetite, sleep, anxiety, desire to drink); format: in vivo, human
Text: as §1, §4

alcoholics [5] = experiment: Follow-up after flumazenil treatment programme (therapy, dropouts); format: in vivo, human
Method: Before discharge from the hospital, the following medications were prescribed: • Vitamin B complex: 1 month with one dose during breakfast and one dose during lunch. • Piracetam, or a medicament that is pharmacologically equivalent, 3 g for 1 week with one dose during breakfast and 800 mg for 1 month with one dose during breakfast and one dose during lunch; • Fluoxetine 20 mg for 2 months with one dose during breakfast; • Clomethiazole 192 mg for 1 week with one dose during breakfast and one dose during dinner and a subsequent elimination of dose during the second week; • Disulfuram 250 mg with one dose during breakfast.
As part of the treatment program, the patients were instructed to attend the outpatient treatment center for 9 months with decreasing frequency [once a week for the first three months, once every two weeks during the second three months, and once a month during the third three months].
Likewise, a semi-structured follow-up of cognitive behavior therapy was implemented. Individual and family psychotherapy was focused on 4 major interventions (cognitive restructuring, work therapy, prevention of relapse, and stress reduction) aimed at rehabilitating the social, family, work, personal and leisure life of the patient.
Table 16 statistically summarizes the results obtained before and after the treatment (at the end of 18 hours).

[6] = tested on: alcoholics in the acute withdrawal phase; details: 2 mg IV for 1 minute, 8 alcoholics, cited from earlier work
[7] = tested on: ethanol withdrawal syndrome; details: cited from earlier work
alcoholics [8] = experiment: Adverse events during flumazenil administration in alcoholics; format: in vivo, human
Text: as §1, §4, §5

[9] = cited from earlier work
[10] = after first administration, 53 patients
[11] = after first administration, 55 patients
[12] = after second administration, 55 patients
[13] = after second administration, 56 patients
[14] = after second administration, 58 patients

NCC1(CC(=O)O)CCCCC1 [Gabapentin]
Elimination half-life [1]: 5 to 7 h

CCOC(=O)c1ncn2c1CN(C)C(=O)c1cc(F)ccc1-2 [flumazenil, ethyl 8-fluoro-5,6-dihydro-5-methyl-6-oxo-4H-imidazol[1,5-a][1,4]benzodiazepine-3-carboxylate]
Diastolic blood pressure: patients with a significant increase (alcoholics [2]; [10]): 18.9% | Diastolic blood pressure: patients with a significant reduction (alcoholics [2]; [10]): 34% | Diastolic blood pressure: patients with no change (alcoholics [2]; [10]): 47.2% | Systolic blood pressure: patients with a significant increase (alcoholics [2]; [10]): 15.1% | Systolic blood pressure: patients with a significant reduction (alcoholics [2]; [10]): 47.2% | Systolic blood pressure: patients with no change (alcoholics [2]; [10]): 37.7% | Heart rate: patients with a significant increase (alcoholics [2]; [11]): 9.1% | Heart rate: patients with a significant reduction (alcoholics [2]; [11]): 50.9% | Heart rate: patients with no change (alcoholics [2]; [11]): 40.0% | Heart rate: patients with a significant reduction (alcoholics [2]; [12]): 41.8% | Heart rate: patients with no change (alcoholics [2]; [12]): 58.2% | Diastolic blood pressure: patients with a significant increase (alcoholics [2]; [13]): 19.6% | Diastolic blood pressure: patients with a significant reduction (alcoholics [2]; [13]): 28.6% | Diastolic blood pressure: patients with no change (alcoholics [2]; [13]): 51.8% | Systolic blood pressure: patients with a significant increase (alcoholics [2]; [13]): 16.1% | Systolic blood pressure: patients with a significant reduction (alcoholics [2]; [13]): 28.6 | Systolic blood pressure: patients with no change (alcoholics [2]; [13]): 55.4% | Diastolic blood pressure mean after treatment (alcoholics [2]; after treatment (at the end of 18 hours), n=51, before treatment mean 86.27): 82.75 | Systolic blood pressure mean after treatment (alcoholics [2]; after treatment (at the end of 18 hours), n=51, before treatment mean 135.2): 126.67 | Heart rate mean after treatment (alcoholics [2]; after treatment (at the end of 18 hours), n=53, before treatment mean 81.42, in beats/min (unit assumed)): 75.02 | CIWA-A scoring: patients with a significant reduction (alcoholics [3]; after first administration of flumazenil (0.2 mg every 3 min up to 2 mg/day), 55 patients): 47.3% | CIWA-A scoring: patients with a significant increase (alcoholics [3]; [11]): 12.7% | CIWA-A scoring: patients with no change (alcoholics [3]; [11]): 40.0% | CIWA-A scoring: patients with a significant increase (alcoholics [3]; [14]): 8.6% | CIWA-A scoring: patients with a significant reduction (alcoholics [3]; [14]): 36.2% | CIWA-A scoring: patients with no change (alcoholics [3]; [14]): 55.2% | CIWA-A mean after treatment (alcoholics [3]; after treatment (at the end of 18 hours), n=54, before treatment mean 4.13): .76 | Psychophysiological functions such as appetite and sleep (alcoholics [4]): regained very rapidly | Spontaneous verbal report from the majority of the patients (alcoholics [4]): absence of anxiety and of the desire to drink alcohol | Follow-up: Dropouts (alcoholics [5]; Month 1, N 43): 4.7% | Follow-up: Therapy and Disulfiram (alcoholics [5]; Month 1, N 43): 95.3% | Follow-up: Therapy without Disulfiram (alcoholics [5]; Month 1, N 43): 4.5% | Follow-up: Dropouts (alcoholics [5]; Month 3, N 22): 9.1% | Follow-up: Therapy and Disulfiram (alcoholics [5]; Month 3, N 22): 86.4% | Follow-up: Dropouts (alcoholics [5]; Month 6, N 12): 25% | Follow-up: Therapy and Disulfiram (alcoholics [5]; Month 6, N 12): 75% | Follow-up: Dropouts (alcoholics [5]; Month 9, N 8): 12.5% | Follow-up: Therapy and Disulfiram (alcoholics [5]; Month 9, N 8): 75% | Follow-up: Therapy without Disulfiram (alcoholics [5]; Month 9, N 8): 12.5% | Withdrawal symptoms after flumazenil ([6]; in other cases): the withdrawal symptoms disappeared but returned a few hours later | Withdrawal symptoms after flumazenil ([6]; in some cases, especially sweats and anxiety): immediate worsening of the withdrawal symptoms | Anxiogenic withdrawal effects (social interaction test, elevated plus maze) ([7]; rat models of the ethanol withdrawal syndrome): reverse anxiogenic withdrawal effects | Agitation and stereotyped behavior induced by withdrawal from long-term ethanol exposure ([7]; rats): prevent the agitation and stereotyped behavior | Patients who suffered headache during or immediately following administration (alcoholics [8]; disappeared after a few minutes or after metamizole magnesium): Approximately 10% | First administration of flumazenil interrupted and postponed to the following day (alcoholics [8]; of the 64 patients treated, increase in confusion, distal tremors or anxiety): 3 cases

OCCOCCN1CCN(C(c2ccccc2)c2ccc(Cl)cc2)CC1 (centres unmarked) [Hydroxyzine]
Time to effects after oral administration [9]: 15 to 30 min
